Columns and labels:
[1] = tested on: G. vaginalis G71; assay: anti-Gardnerella activity of film dispersions, micromethod (CSLI M45); type: cell-based, Gardnerella vaginalis; set-up: key: −: absence of bacterial growth; +: presence; settings: lactic acid used for the preparation of formulations (control)
Protocol: (§1) In an embodiment, the antibacterial activity of chitosan films was tested against two Gardnerella vaginalis clinical strains, this being the pathogen most frequently associated with vaginal bacteriosis. […] The antibacterial activity was tested according to the CSLI M45 standard. Controls were performed with VFS and the lactic acid used for the preparation of formulations, as well as growth controls of strains and sterility of the culture medium used. All tests were performed in duplicate. Plates were observed concerning the presence or absence of bacterial growth after 48 h of growth at 37° C. Table 3 represents the results obtained indicating the marked activity of the film since no bacterial growth occurs for 1:4 dilution (second sequential dilution) of the film dispersion in 3 mL of water and VFS. […] The test was performed after incubation of the wells containing the tissue with maintenance medium (commercial), at 37° C. with 5% CO2 atmosphere, in accordance with the recommendations of the supplier. After the incubation period, 17 mg of film were placed over the tissue in each well and added of […] of PBS to allow for dispersion. After the 12 h incubation period, cellular viability was assessed by the MTT test (n=2 wells) and histological analysis was performed. […] Since this formulations was developed to treat an infection, being toxic to bacteria, it wouldn't be expected to totally innocuous for the human tissue. Biocompatibility of chitosan with human tissue has been described and the lactic acid used in this formulation was selected due to the natural occurrence in the vagina. On the other hand, the fact that this formulation is intended for short term treatments, in an altered vaginal environment due to the presence of pathogens, can influence the final effect of the formulation in the tissue of the host.

[2] = tested on: G. vaginalis G19; assay: as above; type: cell-based, Gardnerella vaginalis; set-up: key: −: absence of bacterial growth; +: presence; settings: lactic acid used for the preparation of formulations (control)
Protocol: as §1

Measured: bacterial growth

CC(O)C(=O)O (stereo not shown) [Lactic acid, lactic acid]
−: [1]; dilution 1:2 | [1]; dilution 1:4 | [2]; dilution 1:2 | [2]; dilution 1:4

— US20170224749A1, “VAGINAL COMPOSITION FOR THE TREATMENT OF UROGENITAL INFECTIONS” (HPRD - HEALTH PRODUCTS RESEARCH AND DEVELOPMENT LDA, priority 2014, published 2017)
